According to US4515941A, “23-Demycinosyldesmycosin derivatives” (Toyo Jozo Kabushiki Kaisha, priority 1982, dated 1985):
Values after ≈ are worked out from the molar mass of the structure shown.

Assays:
Type in all cases: cell-based
[1] = system: Staphylococcus aureus ATCC 6538P; test: MIC, Staphylococcus aureus ATCC 6538P; settings: ATCC6538P, read-out: MIC
[2] = system: Staphylococcus aureus MS353; test: MIC, Staphylococcus aureus MS353; settings: Staphylococcus aureus MS353; read-out: MIC
[3] = system: Staphylococcus aureus MS353 C36; test: MIC, Staphylococcus aureus MS353 C36; settings: MS353C36
[4] = system: Staphylococcus aureus MS353 A0; test: MIC, Staphylococcus aureus MS353 A0 (macrolide resistant); settings: MS353A0, macrolide resistant bacteria A group
Text: (§1) *macrolide resistant bacteria A group (clinical isolates of erythromycin,
(§2) oleandomycin and 16membered macrolide antibiotic resistant strains.)

[5] = system: Staphylococcus aureus 0119; test: MIC, Staphylococcus aureus 0119 (macrolide resistant); settings: macrolide resistant bacteria A group
Text: as §1, §2

[6] = system: Staphylococcus aureus 0127; test: MIC, Staphylococcus aureus 0127 (macrolide resistant); settings: Staphylococcus aureus 0127; macrolide resistant bacteria A group; read-out: MIC
Text: as §1, §2

[7] = system: Staphylococcus epidermis sp-al-1; test: MIC, Staphylococcus epidermis sp-al-1; settings: SPAL1; Staphylococcus epidermis sp-al-1; read-out: MIC
[8] = system: Streptococcus pyogenes N.Y.5; test: MIC, Streptococcus pyogenes N.Y.5; settings: read-out: MIC
[9] = system: Streptococcus pyogenes 1022; test: MIC, Streptococcus pyogenes 1022 (macrolide resistant); settings: Streptococcus pyogenes 1022; macrolide resistant bacteria A group; read-out: MIC
Text: as §1, §2

[10] = system: Streptococcus faecalis 1501; test: MIC, Streptococcus faecalis 1501; settings: Enterococcus faecalis; Streptococcus faecalis 1501; read-out: MIC
[11] = system: Streptococcus agalactiae 1020; test: MIC, Streptococcus agalactiae 1020; settings: Streptococcus agalactiae 1020; read-out: MIC
Sarcina lutea ATCC 9341 = test: MIC, Sarcina lutea ATCC 9341; settings: Micrococcus luteus, ATCC9341
[12] = system: Micrococcus flavus ATCC 10240; test: MIC, Micrococcus flavus ATCC 10240; settings: ATCC10240; Micrococcus flavus ATCC 10240; read-out: MIC
[13] = system: Corynebacterium diptheriae P.Y.8; test: MIC, Corynebacterium diptheriae P.Y.8; settings: Corynebacterium diptheriae P.Y.8; read-out: MIC
[14] = system: Bacillus subtilis ATC 6633; test: MIC, Bacillus subtilis ATC 6633; settings: ATC6633; Bacillus subtilis ATC 6633; read-out: MIC
[15] = system: Escherichia coli NIHJ-JC2; test: MIC, Escherichia coli NIHJ-JC2; settings: NIHJJC2
Escherichia coli B = test: MIC, Escherichia coli B
[16] = system: Klebsiella pneumoniae ATCC 10031; test: MIC, Klebsiella pneumoniae ATCC 10031; settings: ATCC10031; Klebsiella pneumoniae ATCC 10031; read-out: MIC
Salmonella typhosa H901 = test: MIC, Salmonella typhosa H901; settings: Salmonella enterica, TYPHOSA
[17] = system: Salmonella enteritidis Gaertner; test: MIC, Salmonella enteritidis Gaertner; settings: Salmonella enterica; Salmonella enteritidis Gaertner; read-out: MIC
[18] = system: Shigella flexineri type 3a; test: MIC, Shigella flexineri type 3a; settings: TYPE3A
Shigella sonnei E33 = test: MIC, Shigella sonnei E33
Proteus vulgaris OX19 = test: MIC, Proteus vulgaris OX19; settings: Proteus vulgaris OX19; read-out: MIC
Serratia marcescens = test: MIC, Serratia marcescens; settings: read-out: MIC
[19] = system: Pseudomonas aeruginosa IAM 1095; test: MIC, Pseudomonas aeruginosa IAM 1095; settings: IAM1095; Pseudomonas aeruginosa IAM 1095; read-out: MIC

Row | Compound | MIC [1] | MIC [2] | MIC [3] | MIC [4] | MIC [5] | MIC [6] | MIC [7] | MIC [8] | MIC [9] | MIC [10] | MIC [11] | MIC (Sarcina lutea ATCC 9341) | MIC [12] | MIC [13] | MIC [14] | MIC [15] | MIC (Escherichia coli B) | MIC [16] | MIC (Salmonella typhosa H901) | MIC [17] | other results
1 | CCC1OC(=O)CC(O)C(C)C(OC2OC(C)C(O)C(N(C)C)C2O)C(CC=O)CC(C)C(=O)C=CC(C)=CC1COc1ccc(OC)cc1 (centres unmarked) | 0.2 µg/mL (≈ 0.284 µM) | 0.2 µg/mL (≈ 0.284 µM) | 0.1 µg/mL (≈ 0.142 µM) | 100 µg/mL (≈ 142 µM) | > 100 µg/mL | > 100 µg/mL | ≤ 0.05 µg/mL | ≤ 0.05 µg/mL | 100 µg/mL (≈ 142 µM) | 0.2 µg/mL (≈ 0.284 µM) | ≤ 0.05 µg/mL | ≤ 0.05 µg/mL | ≤ 0.05 µg/mL | ≤ 0.05 µg/mL | 0.2 µg/mL (≈ 0.284 µM) | > 100 µg/mL | 100 µg/mL (≈ 142 µM) | 3.1 µg/mL (≈ 4.4 µM) | > 100 µg/mL | > 100 µg/mL | MIC [18]: 50 µg/mL (≈ 71 µM); MIC (Shigella sonnei E33): > 100 µg/mL; MIC (Proteus vulgaris OX19): 50 µg/mL (≈ 71 µM); MIC (Serratia marcescens): > 100 µg/mL; MIC [19]: > 100 µg/mL
2 | CCC1OC(=O)CC(O)C(C)C(OC2OC(C)C(O)C(N(C)C)C2O)C(CC=O)CC(C)C(=O)C=CC(C)=CC1COc1cccc([N+](=O)[O-])c1 (centres unmarked) | 0.1 µg/mL (≈ 0.139 µM) | 0.1 µg/mL (≈ 0.139 µM) | 0.1 µg/mL (≈ 0.139 µM) | 100 µg/mL (≈ 139 µM) | > 100 µg/mL | 100 µg/mL (≈ 139 µM) | ≤ 0.05 µg/mL | ≤ 0.05 µg/mL | 50 µg/mL (≈ 69.6 µM) | 0.1 µg/mL (≈ 0.139 µM) | ≤ 0.05 µg/mL | ≤ 0.05 µg/mL | ≤ 0.05 µg/mL | ≤ 0.05 µg/mL | ≤ 0.05 µg/mL | 100 µg/mL (≈ 139 µM) | 50 µg/mL (≈ 69.6 µM) | 1.6 µg/mL (≈ 2.23 µM) | 100 µg/mL (≈ 139 µM) | > 100 µg/mL | MIC [18]: 12.5 µg/mL (≈ 17.4 µM); MIC (Shigella sonnei E33): 100 µg/mL (≈ 139 µM); MIC (Proteus vulgaris OX19): 25 µg/mL (≈ 34.8 µM); MIC (Serratia marcescens): 50 µg/mL (≈ 69.6 µM); MIC [19]: 50 µg/mL (≈ 69.6 µM)
